Data: patent US20250346575A1, “ISOINDOLINONE DERIVATIVE HAVING GLUTARIMIDE MOTHER NUCLEUS, AND USE THEREOF” (KOREA RESEARCH INSTITUTE OF CHEMICAL TECHNOLOGY, priority 2021, published 2025)

Tested on: Cancer cells (KG-1)
Assay: Cytotoxicity assay, WST-1, KG-1
Type: cell-based
Conditions: for IC50: Homo sapiens, KG-1 cells, 72 hours, WST-1; for activity (in words): monocyclic heteroaryl R1 and aryl R2 compared to bicyclic heteroaryl R1 (Compounds 8, 9, and 26)
Description: To evaluate the effect of the compounds of the present disclosure on cancer cells, a cytotoxicity assay was conducted as follows.
Cancer cells (KG-1) were seeded at a concentration of 10,000 cells per well into a 96-well plate. Then, the cells were treated with predetermined concentrations of compounds of the Examples and comparative substances (comparative compounds 1, 2, 3). After 72 hours, the cells were incubated with WST-1 reagent for one hour. Then, absorbance was measured at 450 nm using a spectramax spectrophotometer to assess the degree of cancer cell apoptosis. The IC50 (μM) values were calculated using the measured values with the GraphPad Prism program and the measurements are summarized in Table 1.

Structure (SMILES) | IC50 [µM] | activity (in words)
O=C1CCC(N2Cc3cc(CNC(=O)c4nc5cc(Cl)c(Cl)cc5[nH]4)ccc3C2=O)C(=O)N1 (centres unmarked) [Compound 16, 5,6-dichloro-N-((2-(2,6-dioxopiperidin-3-yl)-1-oxoisoindolin-5-yl)methyl)-1H-benzo[d]imidazole-2-carboxamide] | 0.01 to 1 | 
Cc1c(C(=O)NCc2ccc3c(c2)CN(C2CCC(=O)NC2=O)C3=O)n[nH]c1-c1ccccc1 (centres unmarked) [Compound 17, N-((2-(2,6-Dioxopiperidin-3-yl)-1-oxoisoindolin-5-yl)methyl)-4-methyl-5-phenyl-1H-pyrazole-3-carboxamide] | 0.0001 to 0.01 | significantly more potent activity
O=C1CCC(N2Cc3cc(CNC(=O)c4cc(-c5ccc(Cl)cc5)ccn4)ccc3C2=O)C(=O)N1 (centres unmarked) [Compound 18, 4-(4-chlorophenyl)-N-((2-(2,6-dioxopiperidin-3-yl)-1-oxoisoindolin-5-yl)methyl)picolinamide] | 0.0001 to 0.01 | 
O=C1CCC(N2Cc3cc(CNC(=O)c4cc(-c5cccc(Cl)c5)on4)ccc3C2=O)C(=O)N1 (centres unmarked) [Compound 19, 5-(3-Chlorophenyl)-N-((2-(2,6-dioxopiperidin-3-yl)-1-oxoisoindolin-5-yl)methyl)isoxazole-3-carboxamide] | 0.0001 to 0.01 | 
O=C1CCC(N2Cc3cc(CNC(=O)c4ncc(-c5cccc(Cl)c5)cn4)ccc3C2=O)C(=O)N1 (centres unmarked) [Compound 20, 5-(3-Chlorophenyl)-N-((2-(2,6-dioxopiperidin-3-yl)-1-oxoisoindolin-5-yl)methyl)pyrimidine-2-carboxamide] | 0.0001 to 0.01 | 
Cc1c(C(=O)NCc2ccc3c(c2)CN(C2CCC(=O)NC2=O)C3=O)nn(Cc2ccccc2)c1-c1cccc(Cl)c1 (centres unmarked) [Compound 21, 1-Benzyl-5-(3-chlorophenyl)-N-((2-(2,6-dioxopiperidin-3-yl)-1-oxoisoindolin-5-yl)methyl)-4-methyl-1H-pyrazole-3-carboxamide] | 0.0001 to 0.01 | 
Cn1nc(C(=O)NCc2ccc3c(c2)CN(C2CCC(=O)NC2=O)C3=O)cc1-c1ccccc1 (centres unmarked) [Compound 23, N-((2-(2,6-Dioxopiperidin-3-yl)-1-oxoisoindolin-5-yl)methyl)-1-methyl-5-phenyl-1H-pyrazole-3-carboxamide] | 0.0001 to 0.01 | significantly more potent activity
O=C1CCC(N2Cc3cc(CNC(=O)c4cc(-c5ccc(Cl)cc5Cl)[nH]n4)ccc3C2=O)C(=O)N1 (centres unmarked) [Compound 25, 5-(2,4-Dichlorophenyl)-N-((2-(2,6-dioxopiperidin-3-yl)-1-oxoisoindolin-5-yl)methyl)-1H-pyrazole-3-carboxamide] | 0.0001 to 0.01 | 
O=C1CCC(N2Cc3cc(CNC(=O)c4nc5ccc(Cl)cc5s4)ccc3C2=O)C(=O)N1 (centres unmarked) [Compound 26, 6-Chloro-N-((2-(2,6-dioxopiperidin-3-yl)-1-oxoisoindolin-5-yl)methyl)benzo[d]thiazole-2-carboxamide] | 0.01 to 1 | 
O=C1CCC(N2Cc3cc(CNC(=O)c4n[nH]c(-c5cccc(Cl)c5)c4Br)ccc3C2=O)C(=O)N1 (centres unmarked) [Compound 27, 4-Bromo-3-(3-chlorophenyl)-N-((2-(2,6-dioxopiperidin-3-yl)-1-oxoisoindolin-5-yl)methyl)-1H-pyrazole-5-carboxamide] | 0.0001 to 0.01 | 
O=C1CCC(N2Cc3cc(CNC(=O)c4cc(-c5cc(Cl)ccc5Cl)[nH]n4)ccc3C2=O)C(=O)N1 (centres unmarked) [Compound 28, 5-(2,5-Dichlorophenyl)-N-((2-(2,6-dioxopiperidin-3-yl)-1-oxoisoindolin-5-yl)methyl)-1H-pyrazole-3-carboxamide] | 0.0001 to 0.01 | 
Cc1ccc(-c2cc(C(=O)NCc3ccc4c(c3)CN(C3CCC(=O)NC3=O)C4=O)n[nH]2)c(C)c1 (centres unmarked) [Compound 29, 5-(2,4-Dimethylphenyl)-N-((2-(2,6-dioxopiperidin-3-yl)-1-oxoisoindolin-5-yl)methyl)-1H-pyrazole-3-carboxamide] | 0.0001 to 0.01 | 
O=C1CCC(N2Cc3cc(CNC(=O)c4cccc(-c5ccccc5)c4)ccc3C2=O)C(=O)N1 (centres unmarked) [Compound 30, N-((2-(2,6-Dioxopiperidin-3-yl)-1-oxoisoindolin-5-yl)methyl)-[1,1′-biphenyl]-3-carboxamide] | 10 to 50 | 
Cc1ccnc(C(=O)NCc2ccc3c(c2)CN(C2CCC(=O)NC2=O)C3=O)c1 (centres unmarked) [Compound 31, N-((2-(2,6-Dioxopiperidin-3-yl)-1-oxoisoindolin-5-yl)methyl)-4-methylpicolinamide] | 10 to 50 | 
O=C1CCC(N2Cc3cc(CNC(=O)c4n[nH]c5ccccc45)ccc3C2=O)C(=O)N1 (centres unmarked) [Compound 34, N-((2-(2,6-Dioxopiperidin-3-yl)-1-oxoisoindolin-5-yl)methyl)-1H-indazole-3-carboxamide] | 0.01 to 1 | 
Cn1cc(Br)cc1C(=O)NCc1ccc2c(c1)CN(C1CCC(=O)NC1=O)C2=O (centres unmarked) [Compound 38, 4-Bromo-N-((2-(2,6-dioxopiperidin-3-yl)-1-oxoisoindolin-5-yl)methyl)-1-methyl-1H-pyrrole-2-carboxamide] | 1 to 10 | 
Cn1cc(-c2ccccc2)cc1C(=O)NCc1ccc2c(c1)CN(C1CCC(=O)NC1=O)C2=O (centres unmarked) [Compound 39, N-((2-(2,6-Dioxopiperidin-3-yl)-1-oxoisoindolin-5-yl)methyl)-1-methyl-4-phenyl-1H-pyrrole-2-carboxamide] | 0.0001 to 0.01 | significantly more potent activity
Cn1cc(-c2cccc(Cl)c2)cc1C(=O)NCc1ccc2c(c1)CN(C1CCC(=O)NC1=O)C2=O (centres unmarked) [Compound 40, 4-(3-Chlorophenyl)-N-((2-(2,6-dioxopiperidin-3-yl)-1-oxoisoindolin-5-yl)methyl)-1-methyl-1H-pyrrole-2-carboxamide] | 0.0001 to 0.01 | significantly more potent activity
Cc1c(C(=O)NCc2ccc3c(c2)CN(C2CCC(=O)NC2=O)C3=O)nn(CC(C)C)c1-c1cccc(Cl)c1 (centres unmarked) [Compound 41, 5-(3-Chlorophenyl)-N-((2-(2,6-dioxopiperidin-3-yl)-1-oxoisoindolin-5-yl)methyl)-1-isobutyl-4-methyl-1H-pyrazole-3-carboxamide] | 0.0001 to 0.01 | 
Cc1c(C(=O)NCc2ccc3c(c2)CN(C2CCC(=O)NC2=O)C3=O)nn(-c2ccccc2)c1-c1cccc(Cl)c1 (centres unmarked) [Compound 42, 5-(3-chlorophenyl)-N-((2-(2,6-dioxopiperidin-3-yl)-1-oxoisoindolin-5-yl)methyl)-4-methyl-1-phenyl-1H-pyrazole-3-carboxamide] | 0.0001 to 0.01 | 
Cc1c(C(=O)NCc2ccc3c(c2)CN(C2CCC(=O)NC2=O)C3=O)nn(Cc2ccc(F)cc2)c1-c1cccc(Cl)c1 (centres unmarked) [Compound 43] | 0.0001 to 0.01 | 
O=C1CCC(N2Cc3cc(CNC(=O)c4nc5cc(Cl)ccc5s4)ccc3C2=O)C(=O)N1 (centres unmarked) [Compound 44, 5-chloro-N-((2-(2,6-dioxopiperidin-3-yl)-1-oxoisoindolin-5-yl)methyl)benzo[d]thiazole-2-carboxamide] | 0.01 to 1 | 
Cc1cnc(C(=O)NCc2ccc3c(c2)CN(C2CCC(=O)NC2=O)C3=O)cc1-c1ccccc1 (centres unmarked) [Compound 45, N-((2-(2,6-Dioxopiperidin-3-yl)-1-oxoisoindolin-5-yl)methyl)-5-methyl-4-phenylpicolinamide] | 0.0001 to 0.01 | 
O=C1CCC(N2Cc3cc(CNC(=O)c4cc(-c5ccccc5)c(Cl)cn4)ccc3C2=O)C(=O)N1 (centres unmarked) [Compound 46, 5-Chloro-N-((2-(2,6-dioxopiperidin-3-yl)-1-oxoisoindolin-5-yl)methyl)-4-phenylpicolinamide] | 0.0001 to 0.01 | 
O=C1CCC(N2Cc3cc(CNC(=O)c4ccccc4-c4ccccc4)ccc3C2=O)C(=O)N1 (centres unmarked) [Compound 52, N-((2-(2,6-Dioxopiperidin-3-yl)-1-oxoisoindolin-5-yl)methyl)-[1,1′-biphenyl]-2-carboxamide] | 10 to 50 | 
O=C1CCC(N2Cc3cc(CNC(=O)C4(c5ccc(Cl)cc5)CCCC4)ccc3C2=O)C(=O)N1 (centres unmarked) [Compound 53, 1-(4-Chlorophenyl)-N-((2-(2,6-dioxopiperidin-3-yl)-1-oxoisoindolin-5-yl)methyl)cyclopentane-1-carboxamide] | 10 to 50 | 
O=C1CCC(N2Cc3cc(CNC(=O)C4(c5ccccc5)CCCC4)ccc3C2=O)C(=O)N1 (centres unmarked) [Compound 54, N-((2-(2,6-Dioxopiperidin-3-yl)-1-oxoisoindolin-5-yl)methyl)-1-phenylcyclopentane-1-carboxamide] | 10 to 50 | 
O=C1CCC(N2Cc3cc(CNC(=O)C4CCN(c5ccccc5)C4=O)ccc3C2=O)C(=O)N1 (centres unmarked) [Compound 55, N-((2-(2,6-Dioxopiperidin-3-yl)-1-oxoisoindolin-5-yl)methyl)-2-oxo-1-phenylpyrrolidine-3-carboxamide] | 1 to 10 | 
